Measured values as given in patent publication US20110263485A1, “Bifunctional Griffithsin Analogs” (priority 2009, published 2011).
Where “and” joins values, the source holds several entries; their conditions need not be identical. Identical values can stand only once. Like-named read-outs stand apart in the source and are kept apart here.

Key:
[1] = system: X4 fusion; conditions: Martin et al. (2003); cited from earlier work
[2] = system: CCR5-tropic fusion; conditions: published reports, vaccinia technology; cited from earlier work
[3] = system: ADA (R5) pseudovirus in TZM-bl cells; conditions: for IC50: read-out: ADA (R5) single round pseudovirus IC50
[4] = system: HeLa-ADA effector cells (HIV-1 ADA (R5) env) and HeLa-P5L target cells (CD4, CCR5); assay: R5 cell-cell fusion assay; conditions: for IC50: read-out: R5 fusion assay IC50
[5] = system: HL2/3 effector cells (HXB2 env (X4)) and HeLa-TZM target cells; assay: X4 cell-cell fusion assay; type: cell-based, HIV-1
Description: In the X4 fusion assay, HeLa-TZM cells were used as target cells and HL2/3 cells were used as effector cells.

[6] = system: HeLa-ADA effector cells and HeLa-P5L target cells seeded with 3T3 cells; assay: competition R5 fusion assay with mouse 3T3 competitor cells; type: cell-based, HIV-1; conditions: for inhibition in R5 fusion assay with competitor cells, in words: mouse 3T3 competitor cells
Procedure: In the competition R5 fusion assay, 5×10^3 HeLa-P5L cells were seeded together with 5×10^3 3T3 cells per well. The rest of the procedure was identical to the normal R5 fusion assay.
For a potential therapeutic to be beneficial in an organism, it needs to be able to effectively find its target in the milieu of other cell types and potential binding partners. As a test of this ability, the R5 cell fusion assay was modified with the addition of unrelated mouse 3T3 cells.

[7] = system: Ba-L (R5) in MAGI cells; assay: replication competent HIV assay, Ba-L in MAGI cells; type: cell-based
[8] = system: ADA (R5) in MAGI cells; assay: replication competent HIV assay, ADA in MAGI cells; type: cell-based
[9] = system: IIIB (X4) in MAGI cells; assay: replication competent HIV assay, IIIB in MAGI cells; type: cell-based
[10] = system: Ba-L (R5) in PBMC; assay: HIV-1 replication in PBMC, Ba-L; type: cell-based
[11] = system: 91US005 (R5) in PBMC; assay: HIV-1 replication in PBMC, 91US005; type: cell-based
[12] = system: NL4-3 (CXCR4-tropic) in PBMCs; assay: HIV-1 replication in PBMC, NL4-3; type: cell-based; conditions: combinations as total protein concentration
[13] = system: 92HT599 (CXCR4-tropic) in PBMCs; assay: HIV-1 replication in PBMC, 92HT599; type: cell-based; conditions: combinations as total protein concentration
[14] = system: HIV; conditions: cited from earlier work
[15] = system: multiple clades of HIV; conditions: cited from earlier work
[16] = system: human cervical explants; conditions: cited from earlier work
[17] = system: rabbit vaginal model; conditions: in vivo; cited from earlier work
[18] = system: HeLa P5L cells pre-incubated with inhibitor, washed, then HeLa ADA cells; assay: R5 fusion assay with wash-out on P5L cells
[19] = system: HeLa ADA cells pre-incubated with inhibitor, washed, then HeLa P5L cells; assay: R5 fusion assay with wash-out on ADA cells
[20] = system: JRFL (R5) pseudovirus in TZM-bl cells; assay: single round infection assay, JRFL pseudovirus
[21] = system: HIV; conditions: read-out: IC50 (50% inhibition) in in vitro assays; Root & Steger (2004); cited from earlier work
[22] = cited from earlier work

With “CD4M33: 27 amino acid peptide designed by Martin et al. as a mimic of human CD4 binding HIV gp120 (CNLHFCQLRCKSLGLLGKCAGSFCACV)” as the substance, how does the IC50 [1] read?
The IC50 was 800 ± 90 nM.

What about the “amount required to inhibit CCR5-tropic fusion” value [2] of the same substance?
The value was “micromolar amounts of the peptide are required”.

What does the source list for “Ac-HTTWMEWDREINNYTSLIHSLIEESQNLQEKNEQELL-NH2 [C37(Q652L)]”?
IC50 [3]: 114 ± 4.94 nM; IC50 [4]: 28.2 ± 8.34 nM

Which results are given for “GriffC37(Q652L): Griff37 with point mutation Q652L in the C37 part”?
inhibition in X4 fusion assay, in words [5]: similar; inhibition in R5 fusion assay, in words [4]: approximately the same effectiveness as Griff37

Which IC50 [5] does the source give for Griffithsin here?
Its IC50 is 0.48 nM and 0.468 nM.

And the IC50 ([6]; 3T3 competitor cells)?
The IC50 was 1.73 ± 0.603 nM.

What about the “inhibition in R5 fusion assay with competitor cells, in words” value [6] of the same substance?
The value was “still performs well”.

And the IC50 [7]?
Its IC50 is 0.04 nM.

And the IC90 [7]?
The IC90 was 0.515 ± 0.055 nM.

What about the IC50 [8] of the same substance?
Its IC50 is 0.03 ± 0.01 nM.

What about the IC90 [8] of the same substance?
Its IC90 is 0.45 ± 0.04 nM.

And the IC50 [9]?
The IC50 was 0.145 ± 0.065 nM.

And the IC90 [9]?
The IC90 was 0.89 ± 0.11 nM.

What about the IC50 ([10]; PBMCs, Table 8, combinations as total protein concentration, read-out: Ba-L (CCR5-tropic) IC50) of the same substance?
Its IC50 is 0.28 ± 0.17 nM.

What about the IC90 ([10]; PBMCs, Table 8, combinations as total protein concentration, read-out: Ba-L (CCR5-tropic) IC90) of the same substance?
Its IC90 is 0.76 ± 0.15 nM.

And the IC50 ([10]; Table 7, read-out: Ba-L (R5) in PBMC IC50)?
The IC50 was 0.28 ± 0.17 nM.

What about the IC90 ([10]; Table 7, read-out: Ba-L (R5) in PBMC IC90) of the same substance?
Its IC90 is 0.76 ± 0.15 nM.

And the IC50 ([11]; PBMCs, Table 8, combinations as total protein concentration, read-out: 91US005 (CCR5-tropic) IC50)?
The IC50 was 0.28 ± 0.17 nM.

What about the IC90 ([11]; PBMCs, Table 8, combinations as total protein concentration, read-out: 91US005 (CCR5-tropic) IC90) of the same substance?
Its IC90 is 0.76 ± 0.15 nM.

What about the IC50 ([11]; Table 7, read-out: 91US005 (R5) in PBMC IC50) of the same substance?
The IC50 was 0.16 ± 0.03 nM.

What about the IC90 ([11]; Table 7, read-out: 91US005 (R5) in PBMC IC90) of the same substance?
Its IC90 is 0.51 ± 0.08 nM.

And the IC50 [12]?
Its IC50 is 0.17 ± 0.04 nM.

And the IC90 [12]?
Its IC90 is 0.725 ± 0.13 nM.

And the IC50 [13]?
Its IC50 is 0.74 ± 0.37 nM.

What about the IC90 [13] of the same substance?
Its IC90 is 1.86 ± 0.89 nM.

What about the IC50 [3] of the same substance?
The IC50 was 0.008 ± 0.016 nM.

And the IC90 ([3]; read-out: ADA (R5) single round pseudovirus IC90)?
The IC90 was 0.164 ± 0.069 nM.

And the “activity in cervical/vaginal lavage fluid” value [14]?
Its value is “retains its activity”.

What about the “activity against clades of HIV” value [15] of the same substance?
The value was “active against multiple clades of HIV”.

And the “inflammation in human cervical explants” value [16]?
The value was “non-inflammatory”.

And the “irritation in a rabbit vaginal model” value [17]?
The value was “non irritating”.

What about the IC50 [4] of the same substance?
Its IC50 is 1.31 nM and 1.3 nM.

And the “inhibition after wash-out on target (P5L) cells, in words” value [18]?
The value was “still performed well”.

What about the IC50 ([18]; read-out: R5 fusion with wash-out on P5L cells IC50) of the same substance?
The IC50 was 7.34 ± 3.58 nM.

And the “inhibition after wash-out on ADA cells, in words” value [19]?
Its value is “maintained nanomolar effectiveness”.

And the IC50 ([19]; read-out: R5 fusion with wash-out on ADA cells IC50)?
The IC50 was 4.28 ± 1.5 nM.

What about the IC50 ([20]; read-out: JRFL (R5) single round pseudovirus IC50) of the same substance?
The IC50 was 0.035 ± 0.008 nM.

And the IC90 ([20]; read-out: JRFL (R5) single round pseudovirus IC90)?
Its IC90 is 1.25 ± 0.19 nM.

For enfuvirtide, which IC50 [21] is on record?
The IC50 was 2 to 20 nM.

And the lifetime in vivo [22]?
Its lifetime in vivo is “short lifetime of only hours in vivo”.

For “P2-RANTES-linker-Griffithsin: P2-RANTES linked to Griffithsin; SEQ ID NO. 4”, which “inhibition in R5 fusion assay with competitor cells, in words” value [6] is on record?
The value was “appeared to perform better than either protein alone”.

And the “inhibition in R5 fusion assay, in words” value [4]?
Its value is “more effective than Griffithsin alone”.

Which “inhibition in R5 fusion assay, in words” value [4] does the source give for “Griff37 I642D: Griff37 with substitution of Asp for Ile at position 642 in C37” here?
The value was “shows decreased activity”.
